Experiment: cytotoxicity of C-3′ modified docetaxel analog (cell line not clearly stated)
Format: cell-based
Conditions: compared with isobutenyl group of RAH-1

In the case of CC(=O)OC12COC1CC(O)C1(C)C(=O)C(O)C3=C(C)C(OC(=O)C(O)C(C=Cc4ccccc4)NC(=O)OC(C)(C)C)CC(O)(C(OC(=O)c4ccccc4)C21)C3(C)C (stereo not shown) [3′-dephenyl-3′-(2-phenylethenyl)docetaxel], the decrease in cytotoxicity is reported as > 20 times.
